Results: publication PMC9005681, “Use of AD Informer Set compounds to explore validity of novel targets in Alzheimer's disease pathology” (Alzheimer's & Dementia : Translational Research & Clinical …, 2022)
Values joined by “and” are separate entries in the source; they are usually repeats but may differ in a detail not shown here. Identical values can stand only once.

Tests used:
Assay in all cases: PDSP GPCR panel primary binding assays at 10 μM
[1] = target: T1, cloned human or rodent CNS receptors, channels, and transporters (PDSP panel) (Homo sapiens, UniProt P28222); conditions: Receptor 5-HT1B, primary assay, 10 μM
T1 construct: expressed in transfected cells
Method in brief: (§1)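 Secondary binding curves (11 points, triplicate) were run at targets where the 10 μM primary screen, done in quadruplicate, displaced over 50% of radio-labelled standard ligand on average. Primary screening covered 46–47 cloned human or rodent CNS targets; H3, PBR and GABAA were not followed up.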

[2] = target: T2, cloned human or rodent CNS receptors, channels, and transporters (PDSP panel) (Homo sapiens, UniProt P28335); conditions: Receptor 5-HT2C, primary assay, 10 μM
T2 construct: expressed in transfected cells
T2 sequence (P28335 33-458): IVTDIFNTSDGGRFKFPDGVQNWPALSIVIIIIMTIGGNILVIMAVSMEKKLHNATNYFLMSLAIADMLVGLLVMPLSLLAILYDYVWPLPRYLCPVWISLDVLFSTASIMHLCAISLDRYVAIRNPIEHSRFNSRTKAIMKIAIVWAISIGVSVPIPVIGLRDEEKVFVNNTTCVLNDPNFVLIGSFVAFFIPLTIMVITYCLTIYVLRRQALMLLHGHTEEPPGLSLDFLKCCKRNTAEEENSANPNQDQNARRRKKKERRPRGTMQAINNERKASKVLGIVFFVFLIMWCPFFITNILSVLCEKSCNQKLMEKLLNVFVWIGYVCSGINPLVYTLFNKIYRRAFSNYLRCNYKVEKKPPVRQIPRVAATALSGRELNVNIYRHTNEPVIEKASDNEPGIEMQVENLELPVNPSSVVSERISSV
Method in brief: as §1

[3] = target: T3, cloned human or rodent CNS receptors, channels, and transporters (PDSP panel) (Homo sapiens, UniProt P35368); conditions: Receptor Alpha1B, primary assay, 10 μM
T3 construct: expressed in transfected cells
T3 sequence (P35368 1-520): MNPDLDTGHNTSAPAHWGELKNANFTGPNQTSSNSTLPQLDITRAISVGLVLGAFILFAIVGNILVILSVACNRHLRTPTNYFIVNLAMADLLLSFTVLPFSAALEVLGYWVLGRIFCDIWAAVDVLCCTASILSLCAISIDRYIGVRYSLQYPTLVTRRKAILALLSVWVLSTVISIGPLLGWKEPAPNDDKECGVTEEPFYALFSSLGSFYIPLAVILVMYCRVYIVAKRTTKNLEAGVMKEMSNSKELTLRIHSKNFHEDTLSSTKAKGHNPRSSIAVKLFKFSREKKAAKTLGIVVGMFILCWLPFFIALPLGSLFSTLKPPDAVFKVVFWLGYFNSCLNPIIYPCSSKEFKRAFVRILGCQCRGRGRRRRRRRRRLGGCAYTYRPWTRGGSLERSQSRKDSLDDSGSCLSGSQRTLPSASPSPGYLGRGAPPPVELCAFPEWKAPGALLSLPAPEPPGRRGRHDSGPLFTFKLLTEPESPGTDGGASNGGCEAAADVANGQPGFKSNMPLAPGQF
Method in brief: as §1

[4] = target: T4, cloned human or rodent CNS receptors, channels, and transporters (PDSP panel) (Homo sapiens, UniProt P50406); conditions: Receptor 5-HT6, primary assay, 10 μM
T4 construct: expressed in transfected cells
Method in brief: as §1

[5] = target: T5, cloned human or rodent CNS receptors, channels, and transporters (PDSP panel) (Homo sapiens, UniProt P21728); conditions: Receptor D1, primary assay, 10 μM
T5 construct: expressed in transfected cells
Method in brief: as §1

[6] = target: T6, cloned human or rodent CNS receptors, channels, and transporters (PDSP panel) (Homo sapiens, UniProt P08173); conditions: Receptor M4, primary assay, 10 μM
T6 construct: expressed in transfected cells
T6 sequence (P08173 1-479): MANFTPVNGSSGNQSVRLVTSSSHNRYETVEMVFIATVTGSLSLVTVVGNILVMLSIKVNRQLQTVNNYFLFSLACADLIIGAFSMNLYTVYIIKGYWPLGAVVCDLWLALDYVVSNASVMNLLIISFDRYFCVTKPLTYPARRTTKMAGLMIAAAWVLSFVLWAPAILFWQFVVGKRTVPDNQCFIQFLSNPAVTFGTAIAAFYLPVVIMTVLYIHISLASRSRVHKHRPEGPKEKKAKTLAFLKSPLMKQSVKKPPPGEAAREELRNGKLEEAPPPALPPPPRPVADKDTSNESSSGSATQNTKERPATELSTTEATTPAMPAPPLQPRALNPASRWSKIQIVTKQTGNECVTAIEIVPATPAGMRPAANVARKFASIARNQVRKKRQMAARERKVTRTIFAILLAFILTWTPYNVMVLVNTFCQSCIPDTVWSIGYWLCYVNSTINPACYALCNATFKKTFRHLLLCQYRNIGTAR
Method in brief: as §1

[7] = target: T7, cloned human or rodent CNS receptors, channels, and transporters (PDSP panel) (Rattus norvegicus, UniProt P16257); conditions: Receptor PBR, primary assay, 10 μM
T7 construct: expressed in transfected cells
Method in brief: as §1

[8] = target: T8, cloned human or rodent CNS receptors, channels, and transporters (PDSP panel) (Homo sapiens, UniProt P14416); conditions: Receptor D2, primary assay, 10 μM
T8 construct: expressed in transfected cells
Method in brief: as §1

[9] = target: T9, cloned human or rodent CNS receptors, channels, and transporters (PDSP panel) (Homo sapiens, UniProt P28221); conditions: Receptor 5-HT1D, primary assay, 10 μM
T9 construct: expressed in transfected cells
Method in brief: as §1

T9 sequence (P28221 whole entry): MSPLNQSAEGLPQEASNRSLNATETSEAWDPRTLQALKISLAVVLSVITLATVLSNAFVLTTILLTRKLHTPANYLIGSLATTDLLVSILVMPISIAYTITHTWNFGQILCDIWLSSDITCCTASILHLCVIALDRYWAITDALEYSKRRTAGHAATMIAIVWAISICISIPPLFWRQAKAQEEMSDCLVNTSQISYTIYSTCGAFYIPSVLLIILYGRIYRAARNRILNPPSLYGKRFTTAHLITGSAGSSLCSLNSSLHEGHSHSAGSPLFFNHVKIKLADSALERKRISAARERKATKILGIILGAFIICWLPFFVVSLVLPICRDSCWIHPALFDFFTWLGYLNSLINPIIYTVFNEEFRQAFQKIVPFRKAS
T5 sequence (P21728 whole entry): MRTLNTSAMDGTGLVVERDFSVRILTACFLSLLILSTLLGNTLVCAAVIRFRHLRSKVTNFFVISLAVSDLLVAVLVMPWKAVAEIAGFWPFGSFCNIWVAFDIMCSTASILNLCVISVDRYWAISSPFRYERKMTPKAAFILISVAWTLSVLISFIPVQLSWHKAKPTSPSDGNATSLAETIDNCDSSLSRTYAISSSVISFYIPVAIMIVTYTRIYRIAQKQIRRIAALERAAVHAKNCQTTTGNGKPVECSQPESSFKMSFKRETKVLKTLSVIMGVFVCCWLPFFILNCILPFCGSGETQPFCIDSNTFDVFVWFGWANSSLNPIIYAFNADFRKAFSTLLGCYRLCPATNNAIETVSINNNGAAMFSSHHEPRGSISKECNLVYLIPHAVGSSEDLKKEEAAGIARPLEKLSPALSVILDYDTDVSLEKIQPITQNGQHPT
T8 sequence (P14416 whole entry): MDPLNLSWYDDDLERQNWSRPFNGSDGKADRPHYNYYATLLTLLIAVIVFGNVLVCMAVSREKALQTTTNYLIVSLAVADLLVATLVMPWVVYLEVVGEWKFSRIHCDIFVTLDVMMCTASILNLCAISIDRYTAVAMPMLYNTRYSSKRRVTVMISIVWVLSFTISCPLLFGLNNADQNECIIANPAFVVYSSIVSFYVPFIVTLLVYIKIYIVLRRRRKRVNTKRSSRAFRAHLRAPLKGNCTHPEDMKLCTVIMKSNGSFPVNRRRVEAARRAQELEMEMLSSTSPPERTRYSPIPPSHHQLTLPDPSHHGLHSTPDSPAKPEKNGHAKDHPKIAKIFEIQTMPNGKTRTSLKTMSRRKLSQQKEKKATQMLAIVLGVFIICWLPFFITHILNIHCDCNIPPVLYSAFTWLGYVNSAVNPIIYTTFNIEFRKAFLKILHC
T1 sequence (P28222 whole entry): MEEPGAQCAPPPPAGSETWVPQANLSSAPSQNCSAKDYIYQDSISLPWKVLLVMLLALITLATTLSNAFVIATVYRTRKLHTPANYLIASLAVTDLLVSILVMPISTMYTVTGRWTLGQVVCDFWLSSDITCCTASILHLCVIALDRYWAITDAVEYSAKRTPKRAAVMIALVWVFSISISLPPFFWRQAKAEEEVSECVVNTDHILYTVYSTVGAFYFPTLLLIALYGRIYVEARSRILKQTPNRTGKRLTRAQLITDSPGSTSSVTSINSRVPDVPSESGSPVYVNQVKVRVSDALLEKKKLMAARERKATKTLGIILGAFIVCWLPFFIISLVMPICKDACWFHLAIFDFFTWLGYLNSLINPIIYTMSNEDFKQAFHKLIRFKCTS
T4 sequence (P50406 whole entry): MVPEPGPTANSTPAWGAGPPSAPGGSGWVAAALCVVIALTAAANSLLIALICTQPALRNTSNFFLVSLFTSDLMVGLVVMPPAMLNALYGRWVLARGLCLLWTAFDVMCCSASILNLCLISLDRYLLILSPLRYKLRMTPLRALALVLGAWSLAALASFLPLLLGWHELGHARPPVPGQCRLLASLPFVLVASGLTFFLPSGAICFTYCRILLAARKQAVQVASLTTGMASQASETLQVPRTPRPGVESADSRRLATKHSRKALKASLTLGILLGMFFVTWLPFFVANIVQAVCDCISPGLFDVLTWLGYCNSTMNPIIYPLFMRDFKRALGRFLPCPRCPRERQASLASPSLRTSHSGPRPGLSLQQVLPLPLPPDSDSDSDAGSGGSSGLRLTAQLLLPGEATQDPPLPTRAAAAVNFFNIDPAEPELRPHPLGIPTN

`Cl.NC(=O)c1cnc(N[C@@H]2CCCC[C@@H]2N)nc1Nc1cccc(-n2nccn2)c1` [UNC10302682A, P505-15 (PRT06207 HCl)] was tested, and the “Inhibition 1” value [1] was 53.66%, the “Inhibition 2” value [1] was 22.41% and the “Inhibition 3” value [1] was 27.71%. For the same compound, the “Inhibition 4” value [1] was 32.24%, the Mean % ([1]; mean of Inhibition 1-4) was 34.01% and the “Inhibition 1” value [2] was 78.04%. The “Inhibition 2” value [2] was 64.79%, the “Inhibition 3” value [2] was 67.73% and the “Inhibition 4” value [2] was 44.66%. The Mean % ([2]; mean of Inhibition 1-4) was 63.81%, the “Inhibition 1” value [3] was 60.7% and the “Inhibition 2” value [3] was 57.49%. For the same compound, the “Inhibition 3” value [3] was 49.58%, the “Inhibition 4” value [3] was 52.45% and the Mean % ([3]; mean of Inhibition 1-4) was 55.06%. The “Inhibition 1” value [4] was -1.07%, the “Inhibition 2” value [4] was -19.49% and the “Inhibition 3” value [4] was -2.98%. For the same compound, the “Inhibition 4” value [4] was -7.9%, the Mean % ([4]; mean of Inhibition 1-4) was -7.86% and the “Inhibition 1” value [5] was 10.12%. For the same compound, the “Inhibition 2” value [5] was 11.25%, the “Inhibition 3” value [5] was 12.71% and the “Inhibition 4” value [5] was 8.82%. For the same compound, the Mean % ([5]; mean of Inhibition 1-4) was 10.73%, the “Inhibition 1” value [6] was 24.23% and the “Inhibition 2” value [6] was 6.78%. For the same compound, the “Inhibition 3” value [6] was 21.48%, the “Inhibition 4” value [6] was 18.49% and the Mean % ([6]; mean of Inhibition 1-4) was 17.75%. The “Inhibition 1” value [7] was 32.16% and 27.63%, the “Inhibition 2” value [7] was 2.97% and 6.1% and the “Inhibition 4” value [7] was 18.35% and 12.24%. The Mean % ([7]; mean of Inhibition 1-4) was 14.68% and 16.23%, the “Inhibition 1” value [8] was 17.73% and the “Inhibition 2” value [8] was -4.34%. The “Inhibition 3” value [8] was 3.54%, the “Inhibition 4” value [8] was 5.97% and the Mean % ([8]; mean of Inhibition 1-4) was 5.73%. For the same compound, the “Inhibition 1” value [9] was 74.44%, the “Inhibition 2” value [9] was 57.78% and the “Inhibition 3” value [9] was 54.87%. The “Inhibition 4” value [9] was 71.94% and the Mean % ([9]; mean of Inhibition 1-4) was 64.76%.
